Test results published in patent US20080188503A1, “New Compounds II” (AstraZenaca AB, priority 2006, published 2008).
pKi: −log10 of the molar value.

Target: T1, recombinant human GSK3β (Homo sapiens, UniProt P49841)
T1 construct: purchased Dundee University, UK
Test: GSK3β Scintillation Proximity Assay (ATP competition)
Format: biochemical
Details: recombinant human GSK3β SPA; 1 μM ATP, 1 μM biotinylated peptide substrate; Ki calculated with Km of ATP 20 μM
Method: Determination of ATP Competition in Scintillation Proximity GSK3β Assay.
GSK3β Scintillation Proximity Assay.
The competition experiments were carried out in duplicate with 10 different concentrations of the inhibitors in clear-bottom microtiter plates (Wallac, Finland). A biotinylated peptide substrate, Biotin-Ala-Ala-Glu-Glu-Leu-Asp-Ser-Arg-Ala-Gly-Ser(PO3H2)-Pro-Gln-Leu (AstraZeneca, Lund), was added at a final concentration of 1 μM in an assay buffer containing 1 mU recombinant human GSK3β (Dundee University, UK), 12 mM morpholinepropanesulfonic acid (MOPS), pH 7.0, 0.3 mM EDTA, 0.01% β-mercaptoethanol, 0.004% Brij 35 (a […] detergent), 0.5% glycerol and 0.5 μg BSA/25 μl. The reaction was initiated by the addition of 0.04 μCi [γ-^33P]ATP (Amersham, UK) and unlabelled ATP at a final concentration of 1 μM and assay volume of 25 μl. After incubation for 20 minutes at room temperature, each reaction was terminated by the addition of 25 μl stop solution containing 5 mM EDTA, 50 μM ATP, 0.1% Triton X-100 and 0.25 mg streptavidin coated Scintillation Proximity Assay (SPA) beads (Amersham, UK). After 6 hours the radioactivity was determined in a liquid scintillation counter (1450 MicroBeta Trilux, Wallac). The inhibition curves were analysed by non-linear regression using GraphPad Prism, USA. The Km value of ATP for GSK3β, used to calculate the inhibition constants (Ki) of the various compounds, was 20 μM.

T1 sequence (P49841 whole entry): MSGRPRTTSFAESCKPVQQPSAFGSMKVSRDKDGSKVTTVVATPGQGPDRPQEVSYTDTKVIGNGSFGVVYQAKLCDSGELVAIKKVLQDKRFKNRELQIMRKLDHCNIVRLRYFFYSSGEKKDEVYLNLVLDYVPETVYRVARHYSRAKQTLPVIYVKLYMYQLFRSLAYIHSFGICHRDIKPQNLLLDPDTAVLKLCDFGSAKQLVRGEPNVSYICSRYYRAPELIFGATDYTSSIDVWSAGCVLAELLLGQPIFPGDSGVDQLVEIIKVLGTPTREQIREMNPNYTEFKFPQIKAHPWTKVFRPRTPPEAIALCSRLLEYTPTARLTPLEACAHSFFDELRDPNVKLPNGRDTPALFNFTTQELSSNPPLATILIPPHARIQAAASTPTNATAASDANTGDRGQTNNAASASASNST

| pKi | Compound |
| --- | --- |
| 6.66 | Cc1ncc(-c2nc(Nc3cncnc3)ncc2F)n1C1CCOCC1 [Example 1, 5-Fluoro-4-[2-methyl-1-(tetrahydro-2H-pyran-4-yl)-1H-imidazol-5-yl]-N-pyrimidin-5-ylpyrimidin-2-amine] |
| 7.31 | CC(=O)c1cncc(Nc2ncc(F)c(-c3cnc(C)n3C3CCOCC3)n2)c1 [Example 2, 1-[5-({5-Fluoro-4-[2-methyl-1-(tetrahydro-2H-pyran-4-yl)-1H-imidazol-5-yl]pyrimidin-2-yl}amino)pyridin-3-yl]ethanone] |
| 6.28 | COc1cccc(Nc2ncc(F)c(-c3cnc(C)n3C3CCOCC3)n2)n1 [Example 3, 5-Fluoro-N-(6-methoxypyridin-2-yl)-4-[2-methyl-1-(tetrahydro-2H-pyran-4-yl)-1H-imidazol-5-yl]pyrimidin-2-amine] |
| 5.59 | Cc1ncc(-c2nc(Nc3ccc(C(F)(F)F)cn3)ncc2F)n1C1CCOCC1 [Example 4, 5-Fluoro-4-[2-methyl-1-(tetrahydro-2H-pyran-4-yl)-1H-imidazol-5-yl]-N-[5-(trifluoromethyl)pyridin-2-yl]pyrimidin-2-amine] |
| 7.55 | Cc1ccc(Nc2ncc(F)c(-c3cnc(C)n3C3CCOCC3)n2)cn1 [Example 5, 5-Fluoro-N-(6-methylpyridin-3-yl)-4-[2-methyl-1-(tetrahydro-2H-pyran-4-yl)-1H-imidazol-5-yl]pyrimidin-2-amine] |
| 5.96 | COc1ccnc(Nc2ncc(F)c(-c3cnc(C)n3C3CCOCC3)n2)c1 [Example 6, 5-Fluoro-N-(4-methoxypyridin-2-yl)-4-[2-methyl-1-(tetrahydro-2H-pyran-4-yl)-1H-imidazol-5-yl]pyrimidin-2-amine] |
| 7.19 | Cc1ncc(-c2nc(Nc3ccc(CN4CCOCC4)nc3)ncc2F)n1C1CCOCC1 [Example 10, 5-Fluoro-4-[2-methyl-1-(tetrahydro-2H-pyran-4-yl)-1H-imidazol-5-yl]-N-[6-(morpholin-4-ylmethyl)pyridin-3-yl]pyrimidin-2-amine] |
| 6.59 | Cc1ncc(-c2nc(Nc3ccc(CN4CCCCC4)nc3)ncc2F)n1C1CCOCC1 [Example 12, 5-Fluoro-4-[2-methyl-1-(tetrahydro-2H-pyran-4-yl)-1H-imidazol-5-yl]-N-[6-(piperidin-1-ylmethyl)pyridin-3-yl]pyrimidin-2-amine] |
| 6.54 | Cc1ncc(-c2nc(Nc3ccc(CN4CCCN(C)CC4)nc3)ncc2F)n1C1CCOCC1 [Example 13, 5-Fluoro-N-{6-[(4-methyl-1,4-diazepan-1-yl)methyl]pyridin-3-yl}-4-[2-methyl-1-(tetrahydro-2H-pyran-4-yl)-1H-imidazol-5-yl]pyrimidin-2-amine] |
| 8.00 | Cc1ncc(-c2nc(Nc3ccc(CN4CCN(c5ncccn5)CC4)nc3)ncc2F)n1C1CCOCC1 [Example 14, 5-Fluoro-4-[2-methyl-1-(tetrahydro-2H-pyran-4-yl)-1H-imidazol-5-yl]-N-{6-[(4 pyrimidin-2-ylpiperazin-1-yl)methyl]pyridin-3-yl}pyrimidin-2-amine] |
| 5.89 | COC[C@@H]1CCCN1Cc1ccc(Nc2ncc(F)c(-c3cnc(C)n3C3CCOCC3)n2)cn1 [Example 15, 5-Fluoro-N-(6-{[(2S)-2-(methoxymethyl)pyrrolidin-1-yl]methyl}pyridin-3-yl)-4-[2-methyl-1-(tetrahydro-2H-pyran-4-yl)-1H-imidazol-5-yl]pyrimidin-2-amine] |
| 7.12 | CC(=O)N1CCCN(Cc2ccc(Nc3ncc(F)c(-c4cnc(C)n4C4CCOCC4)n3)cn2)CC1 [Example 16, N-{6-[(4-Acetyl-1,4-diazepan-1-yl)methyl]pyridin-3-yl}-5-fluoro-4-[2-methyl-1-(tetrahydro-2H-pyran-4-yl)-1H-imidazol-5-yl]pyrimidin-2-amine] |
| 6.12 | Cc1ncc(-c2nc(Nc3ccc(CN4CC(C)OC(C)C4)nc3)ncc2F)n1C1CCOCC1 (stereo not shown) [Example 17, N-{6-[(2,6-Dimethylmorpholin-4-yl)methyl]pyridin-3-yl}-5-fluoro-4-[2-methyl-1-(tetrahydro-2H-pyran-4-yl)-1H-imidazol-5-yl]pyrimidin-2-amine] |
| 7.38 | Cc1ncc(-c2nc(Nc3ccc(CN4CCC(F)(F)CC4)nc3)ncc2F)n1C1CCOCC1 [Example 18, N-{6-[(4,4-Difluoropiperidin-1-yl)methyl]pyridin-3-yl}-5-fluoro-4-[2-methyl-1-(tetrahydro-2H-pyran-4-yl)-1H-imidazol-5-yl]pyrimidin-2-amine] |
| 6.68 | Cc1ncc(-c2nc(Nc3ccc(CN4CCCC4)nc3)ncc2F)n1C1CCOCC1 [Example 19, 5-Fluoro-4-[2-methyl-1-(tetrahydro-2H-pyran-4-yl)-1H-imidazol-5-yl]-N-[6-(pyrrolidin-1-ylmethyl)pyridin-3-yl]pyrimidin-2-amine] |
| 7.43 | Cc1ncc(-c2nc(Nc3ccc(CNCc4ccc(Cl)nc4)nc3)ncc2F)n1C1CCOCC1 [Example 20, N-[6-({[(6-Chloropyridin-3-yl)methyl]amino}methyl)pyridin-3-yl]-5-fluoro-4-[2-methyl-1-(tetrahydro-2H-pyran-4-yl)-1H-imidazol-5-yl]pyrimidin-2-amine] |
| 7.10 | Cc1ncc(-c2nc(Nc3ccc(CN4CCCOCC4)nc3)ncc2F)n1C1CCOCC1 [Example 21, 5-Fluoro-4-[2-methyl-1-(tetrahydro-2H-pyran-4-yl)-1H-imidazol-5-yl]-N-[6-(1,4 oxazepan-4-ylmethyl)pyridin-3-yl]pyrimidin-2-amine] |
| 6.82 | COC1CCN(Cc2ccc(Nc3ncc(F)c(-c4cnc(C)n4C4CCOCC4)n3)cn2)CC1 [Example 22, 5-Fluoro-N-{6-[(4-methoxypiperidin-1-yl)methyl]pyridin-3-yl}-4-[2-methyl-1-(tetrahydro-2H-pyran-4-yl)-1H-imidazol-5-yl]pyrimidin-2-amine] |
| 6.77 | Cc1ncc(-c2nc(Nc3ccc(CN4CCCC(CO)C4)nc3)ncc2F)n1C1CCOCC1 (stereo not shown) [Example 23, (1-{[5-({5-Fluoro-4-[2-methyl-1-(tetrahydro-2H-pyran-4-yl)-1H-imidazol-5-yl]pyrimidin-2-yl}amino)pyridin-2-yl]methyl}piperidin-3-yl)methanol] |
| 6.64 | Cc1ncc(-c2nc(Nc3ccc(CNCCCN4CCCC4=O)nc3)ncc2F)n1C1CCOCC1 [Example 24, 1-[3-({[5-({5-Fluoro-4-[2-methyl-1-(tetrahydro-2H-pyran-4-yl)-1H-imidazol-5-yl]pyrimidin-2-yl}amino)pyridin-2-yl]methyl}amino)propyl]pyrrolidin-2-one] |
| 6.68 | Cc1ncc(-c2nc(Nc3ccc(CN4CCC(N5CCCC5)CC4)nc3)ncc2F)n1C1CCOCC1 [Example 25, 5-Fluoro-4-[2-methyl-1-(tetrahydro-2H-pyran-4-yl)-1H-imidazol-5-yl]-N-{6-[(4 pyrrolidin-1-ylpiperidin-1-yl)methyl]pyridin-3-yl}pyrimidin-2-amine] |
| 7.12 | Cc1ncc(-c2nc(Nc3ccc(CN(CCC#N)CC4CCCO4)nc3)ncc2F)n1C1CCOCC1 (stereo not shown) [Example 26, 3-[{[5-({5-Fluoro-4-[2-methyl-1-(tetrahydro-2H-pyran-4-yl)-1H-imidazol-5-yl]pyrimidin-2-yl}amino)pyridin-2-yl]methyl}(tetrahydrofuran-2-ylmethyl)amino]propanenitrile] |
| 6.48 | Cc1ncc(-c2nc(Nc3ccc(CN4CCC4)nc3)ncc2F)n1C1CCOCC1 [Example 27, N-[6-(Azetidin-1-ylmethyl)pyridin-3-yl]-5-fluoro-4-[2-methyl-1-(tetrahydro-2H-pyran-4-yl)-1H-imidazol-5-yl]pyrimidin-2-amine] |
| 6.55 | CCN(CCOC)Cc1ccc(Nc2ncc(F)c(-c3cnc(C)n3C3CCOCC3)n2)cn1 [Example 28, N-(6-{[Ethyl(2-methoxyethyl)amino]methyl}pyridin-3-yl)-5-fluoro-4-[2-methyl-1-(tetrahydro-2H-pyran-4-yl)-1H-imidazol-5-yl]pyrimidin-2-amine] |
| 7.32 | Cc1ncc(-c2nc(Nc3ccc(CNCC#N)nc3)ncc2F)n1C1CCOCC1 [Example 29, ({[5-({5-Fluoro-4-[2-methyl-1-(tetrahydro-2H-pyran-4-yl)-1H-imidazol-5-yl]pyrimidin-2-yl}amino)pyridin-2-yl]methyl}amino)acetonitrile] |
| 6.70 | Cc1ncc(-c2nc(Nc3cncc4ccccc34)ncc2F)n1C1CCOCC1 [Example 30, {5-Fluoro-4-[2-methyl-3-(tetrahydro-pyran-4-yl)-3H-imidazol-4-yl]-pyrimidin-2-yl}-isoquinolin-4-yl-amine] |
| 7.41 | Cc1ncc(-c2nc(Nc3ccncc3)ncc2F)n1C1CCOCC1 [Example 31, {5-Fluoro-4-[2-methyl-3-(tetrahydro-pyran-4-yl)-3H-imidazol-4-yl]-pyrimidin-2-yl}-pyridin-4-yl-amine] |
| 6.68 | Cc1ncc(-c2nc(NC3CCN(C(=O)OC(C)(C)C)CC3)ncc2F)n1C1CCOCC1 [Example 33, tert-Butyl 4-({5-fluoro-4-[2-methyl-1-(tetrahydro-2H-pyran-4-yl)-1H-imidazol-5-yl]pyrimidin-2-yl}amino)piperidine-1-carboxylate] |
